Assay results as given in patent US6525001B1, “Substituted pyrimidine and pyridine herbicides” (Mid-American Commercialization Corporation, priority 1997, dated 2003).

Legend:
Assay type in all cases: in vivo
[1] = test system: blackgrass (Alopecurus myosuroides); test: Test B pre-/postemergence; set-up: key: 0 is no effect; 10 is complete control
Outline: (§1)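 Seeds were planted and sprayed preemergence, while plants at 2 to 18 cm (1- to 4-leaf stage) were sprayed postemergence at the same time, with test chemical in a non-phytotoxic solvent mixture containing surfactant. After twelve to sixteen days in a greenhouse, injury was rated visually against untreated controls on a 0–10 scale.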

wild oat (Avena fatua) = test: Test B pre-/postemergence; set-up: key: 0 is no effect; 10 is complete control
Outline: as §1

[2] = test system: purple nutsedge (Cyperus rotundus); test: Test B pre-/postemergence; set-up: key: 0 is no effect; 10 is complete control
Outline: as §1

[3] = test system: crabgrass (Digitaria sanguinalis); test: Test B pre-/postemergence; set-up: key: 0 is no effect; 10 is complete control
Outline: as §1

soybean (Glycine max) = test: Test B pre-/postemergence; set-up: key: 0 is no effect; 10 is complete control
Outline: as §1

[4] = test system: purple nutsedge (Cyperus rotundus); test: Test C; set-up: key: 0 was no effect; 100 was complete control; conditions: PREEMERGENCE
[5] = test system: lambsquarters (Chenopodium album); test: Test C; set-up: key: 0 was no effect; 100 was complete control; conditions: PREEMERGENCE
[6] = Rate 250 g/ha, Postemergence (so in the source)

| Structure (SMILES) | Plant response rating, Blackgrass ([1]; Rate 62 g/ha, Postemergence) | Blackgrass plant response rating ([1]; Rate 62 g/ha, Preemergence) | Plant response rating, Blackgrass ([1]; Rate 125 g/ha, Postemergence) | Blackgrass plant response rating ([1]; Rate 125 g/ha, Preemergence) | Plant response rating, Blackgrass ([1]; Rate 250 g/ha, Postemergence) | Plant response rating, Blackgrass ([1]; Rate 250 g/ha, Preemergence) | Wild oats plant response rating (wild oat (Avena fatua); Rate 62 g/ha, Preemergence) | Plant response rating, Wild oats (wild oat (Avena fatua); Rate 250 g/ha, Postemergence) | Plant response rating, Nutsedge ([2]; Rate 62 g/ha, Postemergence) | Nutsedge plant response rating ([2]; Rate 62 g/ha, Preemergence) | Nutsedge plant response rating ([2]; Rate 125 g/ha, Preemergence) | Plant response rating, Nutsedge ([2]; Rate 250 g/ha, Postemergence) | Plant response rating, Crabgrass ([3]; Rate 62 g/ha, Postemergence) | Crabgrass plant response rating ([3]; Rate 62 g/ha, Preemergence) | Plant response rating, Crabgrass ([3]; Rate 125 g/ha, Postemergence) | Crabgrass plant response rating ([3]; Rate 125 g/ha, Preemergence) | Plant response rating, Crabgrass ([3]; Rate 250 g/ha, Postemergence) | Plant response rating, Soybean (soybean (Glycine max); Rate 62 g/ha, Postemergence) | Soybean plant response rating (soybean (Glycine max); Rate 62 g/ha, Preemergence) | Plant response rating, Soybean (soybean (Glycine max); Rate 250 g/ha, Postemergence) | further results |
| --- | --- | --- | --- | --- | --- | --- | --- | --- | --- | --- | --- | --- | --- | --- | --- | --- | --- | --- | --- | --- | --- |
| Cc1cnc(-c2ccc(C(F)(F)F)cc2)nc1C(Cl)c1cccc(C(F)(F)F)c1 (racemic) [Compound 21] | 3 | 1 | 4 | 3 | 6 | 5 | 4 | 6 | 2 | 0 | 0 | 3 | 3 | 3 | 6 | 6 | 8 | 6 | 0 | 6 | Plant response rating, Wild oats (wild oat (Avena fatua); Rate 62 g/ha, Postemergence): 4; Plant response rating, Wild oats (wild oat (Avena fatua); Rate 125 g/ha, Postemergence): 5; Wild oats plant response rating (wild oat (Avena fatua); Rate 125 g/ha, Preemergence): 5; Plant response rating, Wild oats (wild oat (Avena fatua); Rate 250 g/ha, Preemergence): 8; Plant response rating, Nutsedge ([2]; Rate 125 g/ha, Postemergence): 2; Plant response rating, Nutsedge ([2]; Rate 250 g/ha, Preemergence): 0; Plant response rating, Crabgrass ([3]; Rate 250 g/ha, Preemergence): 10; Plant response rating, Soybean (soybean (Glycine max); Rate 125 g/ha, Postemergence): 6; Soybean plant response rating (soybean (Glycine max); Rate 125 g/ha, Preemergence): 0; Plant response rating, Soybean (soybean (Glycine max); Rate 250 g/ha, Preemergence): 0; Plant response rating, Purple nutsedge ([4]; Rate 35 g/ha): 0; Plant response rating, Purple nutsedge ([4]; Rate 70 g/ha): 0; Plant response rating, Purple nutsedge ([4]; Rate 140 g/ha): 0; Plant response rating, Lambsquarters ([5]; Rate 35 g/ha): 0; Plant response rating, Lambsquarters ([5]; Rate 70 g/ha): 5; Plant response rating, Lambsquarters ([5]; Rate 140 g/ha): 90 |
| Cc1cnc(-n2cnc(C(F)(F)F)n2)nc1Cc1cccc(C(F)(F)F)c1 [Compound 43] | 5 | 2 | 6 | 5 | 8 | – | 6 | 6 | 0 | 0 | 0 | 3 | 7 | 8 | 8 | 10 | 10 | 8 | 1 | 9 | Plant response rating, Blackgrass [1, 6]: 8; Wild oats plant response rating (wild oat (Avena fatua); Rate 62 g/ha, Postemergence): 4; Wild oats plant response rating (wild oat (Avena fatua); Rate 125 g/ha, Postemergence): 5; Plant response rating, Wild oats (wild oat (Avena fatua); Rate 125 g/ha, Preemergence): 9; Plant response rating, Wild oats (wild oat (Avena fatua); [6]): 9; Nutsedge plant response rating ([2]; Rate 125 g/ha, Postemergence): 2; Plant response rating, Crabgrass [3, 6]: 10; Soybean plant response rating (soybean (Glycine max); Rate 125 g/ha, Postemergence): 9; Plant response rating, Soybean (soybean (Glycine max); Rate 125 g/ha, Preemergence): 5; Plant response rating, Soybean (soybean (Glycine max); [6]): 7; Plant response rating, Purple nutsedge ([4]; Rate 35 g/ha): 0; Plant response rating, Purple nutsedge ([4]; Rate 70 g/ha): 0; Plant response rating, Purple nutsedge ([4]; Rate 140 g/ha): 0; Plant response rating, Lambsquarters ([5]; Rate 35 g/ha): 100; Plant response rating, Lambsquarters ([5]; Rate 70 g/ha): 100; Plant response rating, Lambsquarters ([5]; Rate 140 g/ha): 100 |
| Cc1cnc(-c2ccc(C(F)(F)F)cc2)nc1Cn1nc(C(F)(F)F)cc1C [Compound 13] | 3 | 2 | 3 | 4 | 5 | 4 | 3 | 4 | 0 | 0 | 0 | 0 | 3 | 9 | 4 | 10 | 7 | 4 | 1 | 5 | Plant response rating, Blackgrass ([1]; Rate 500 g/ha, Postemergence): 5; Plant response rating, Blackgrass ([1]; Rate 500 g/ha, Preemergence): 9; Plant response rating, Wild oats (wild oat (Avena fatua); Rate 62 g/ha, Postemergence): 3; Plant response rating, Wild oats (wild oat (Avena fatua); Rate 125 g/ha, Postemergence): 3; Wild oats plant response rating (wild oat (Avena fatua); Rate 125 g/ha, Preemergence): 5; Plant response rating, Wild oats (wild oat (Avena fatua); Rate 250 g/ha, Preemergence): 7; Plant response rating, Wild oats (wild oat (Avena fatua); Rate 500 g/ha, Postemergence): 4; Plant response rating, Wild oats (wild oat (Avena fatua); Rate 500 g/ha, Preemergence): 9; Plant response rating, Nutsedge ([2]; Rate 125 g/ha, Postemergence): 0; Plant response rating, Nutsedge ([2]; Rate 250 g/ha, Preemergence): 0; Plant response rating, Nutsedge ([2]; Rate 500 g/ha, Postemergence): 0; Plant response rating, Nutsedge ([2]; Rate 500 g/ha, Preemergence): 0; Plant response rating, Crabgrass ([3]; Rate 250 g/ha, Preemergence): 10; Plant response rating, Crabgrass ([3]; Rate 500 g/ha, Postemergence): 9; Plant response rating, Crabgrass ([3]; Rate 500 g/ha, Preemergence): 10; Plant response rating, Soybean (soybean (Glycine max); Rate 125 g/ha, Postemergence): 5; Soybean plant response rating (soybean (Glycine max); Rate 125 g/ha, Preemergence): 1; Plant response rating, Soybean (soybean (Glycine max); Rate 250 g/ha, Preemergence): 3; Plant response rating, Soybean (soybean (Glycine max); Rate 500 g/ha, Postemergence): 5; Plant response rating, Soybean (soybean (Glycine max); Rate 500 g/ha, Preemergence): 3 |
